“Also recorded” adds a separate entry of the source. Where two headings read alike, the source gives them in different places.

Test [1] has as its target T1, jack bean urease (Canavalia ensiformis, UniProt P07374). Briefly: Antiurease assay. In kind it is biochemical. Particulars: for % inhibition (urease): inhibitor concentration not given.
For test [2], the target named is T1, jack bean urease. The experiment in a line: Enzyme kinetic studies. In kind it is biochemical. The following applies: for Vmax (app): at an inhibitor concentration of 20 μM; for mode of inhibition: urease, Lineweaver–Burk plots.

T1 sequence (P07374 whole entry, looked up): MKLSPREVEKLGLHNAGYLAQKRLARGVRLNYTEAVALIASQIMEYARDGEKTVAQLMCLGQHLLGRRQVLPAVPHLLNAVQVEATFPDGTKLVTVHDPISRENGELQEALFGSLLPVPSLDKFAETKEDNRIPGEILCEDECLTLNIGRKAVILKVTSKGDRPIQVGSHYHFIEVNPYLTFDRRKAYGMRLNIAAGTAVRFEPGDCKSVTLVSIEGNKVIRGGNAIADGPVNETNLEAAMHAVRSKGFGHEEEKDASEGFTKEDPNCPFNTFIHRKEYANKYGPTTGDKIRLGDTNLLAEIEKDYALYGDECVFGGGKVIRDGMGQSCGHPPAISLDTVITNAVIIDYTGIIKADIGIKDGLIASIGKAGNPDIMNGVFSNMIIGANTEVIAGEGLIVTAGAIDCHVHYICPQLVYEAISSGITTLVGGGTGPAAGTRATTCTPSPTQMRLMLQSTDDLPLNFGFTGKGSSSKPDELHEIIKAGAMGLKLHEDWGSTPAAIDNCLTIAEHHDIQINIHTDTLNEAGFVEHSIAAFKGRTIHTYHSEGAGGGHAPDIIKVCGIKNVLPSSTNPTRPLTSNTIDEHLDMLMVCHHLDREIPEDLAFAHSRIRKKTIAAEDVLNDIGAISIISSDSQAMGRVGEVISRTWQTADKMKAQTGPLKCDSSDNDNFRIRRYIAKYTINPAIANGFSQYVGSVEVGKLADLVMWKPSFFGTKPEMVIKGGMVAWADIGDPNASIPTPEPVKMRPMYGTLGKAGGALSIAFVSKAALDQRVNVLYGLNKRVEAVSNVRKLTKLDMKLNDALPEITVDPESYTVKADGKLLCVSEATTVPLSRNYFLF

Regarding `Cc1noc(NS(=O)(=O)c2ccc(NC(=O)Cc3ccccc3Nc3c(Cl)cccc3Cl)cc2)c1C` [conjugate 5, 2-(2-((2,6-Dichlorophenyl)amino)phenyl)-N-(4-(N-(3,4-dimethylisoxazol-5-yl)sulfamoyl)phenyl)acetamide], half-maximal inhibition on jack bean urease [1] (IC50) required 23.1 ± 0.49 µM. The “% inhibition (urease)” value at jack bean urease [1] (jack bean urease) was found to be 73.4%.

On to `O=C(Cc1ccccc1Nc1c(Cl)cccc1Cl)Nc1ccc(S(=O)(=O)Nc2nccs2)cc1` [conjugate 6, 2-(2-((2,6-Dichlorophenyl)amino)phenyl)-N-(4-(N-(thiazol-2-yl)sulfamoyl)phenyl)acetamide], for which the half-maximal inhibitory concentration (IC50) (commonly the midpoint of a concentration-inhibition curve) against jack bean urease [1] was determined as 16.2 ± 0.21 µM. Moreover, the “% inhibition (urease)” value at jack bean urease [1] (jack bean urease) came to 71.3%. Moreover, at jack bean urease [2], the inhibitory constant (Ki) (commonly the equilibrium dissociation constant of an inhibitor or competing ligand from its target) worked out at 16.3 µM, the “Vmax (app)” value worked out at 0.755 µM/min and the mode of inhibition result is given as “mixed”.

`O=C(Cc1ccccc1Nc1c(Cl)cccc1Cl)Nc1ccc(S(=O)(=O)Nc2ncccn2)cc1` [conjugate 7, 2-(2-((2,6-Dichlorophenyl)amino)phenyl)-N-(4-(N-(pyrimidin-2-yl)sulfamoyl)phenyl)acetamid] displayed an IC50 at jack bean urease [1] of 30.49 ± 0.28 µM. At jack bean urease [1] (jack bean urease), the “% inhibition (urease)” value is 83.6%.

Consider `Cc1ccnc(NS(=O)(=O)c2ccc(NC(=O)Cc3ccccc3Nc3c(Cl)cccc3Cl)cc2)n1` [conjugate 8, 2-(2-((2,6-Dichlorophenyl)amino)phenyl)-N-(4-(N-(4-methylpyrimidin-2-yl)sulfamoyl)phenyl)acetamide], for which, on jack bean urease [1], the concentration for half-maximal inhibition (IC50) worked out at 9.5 ± 0.28 µM. For the same compound, the “% inhibition (urease)” value at jack bean urease [1] (jack bean urease) came out at 85.9%. Moreover, on jack bean urease [2], the affinity corresponds to a Ki of 10.8 µM, the “Vmax (app)” value came to 2.27 µM/min and the mode of inhibition result was “mixed”.

In the case of `Cc1cc(NS(=O)(=O)c2ccc(NC(=O)Cc3ccccc3Nc3c(Cl)cccc3Cl)cc2)no1` [conjugate 9, 2-(2-((2,6-Dichlorophenyl)amino)phenyl)-N-(4-(N-(5-methylisoxazol-3-yl)sulfamoyl)phenyl)acetamide], at jack bean urease [1], the half-inhibitory concentration (IC50) is 33.34 ± 0.21 µM. On jack bean urease [1] (jack bean urease), the “% inhibition (urease)” value is on record as 77.3%.

On jack bean urease [1], `CC(=O)NS(=O)(=O)c1ccc(NC(=O)Cc2ccccc2Nc2c(Cl)cccc2Cl)cc1` [conjugate 10, N-(4-(N-Acetylsulfamoyl)phenyl)-2-(2-((2,6-dichlorophenyl)amino)phenyl)acetamide] showed an IC50 of 5.49 ± 0.34 µM. The “% inhibition (urease)” value at jack bean urease [1] (jack bean urease) amounted to 84.5%. In addition, on jack bean urease [2], the Ki is 2.73 µM, the “Vmax (app)” value was determined as 3.46 µM/min and the mode of inhibition entry is “competitively; also recorded: competitive”.

At jack bean urease [1], `N=C(N)NS(=O)(=O)c1ccc(NC(=O)Cc2ccccc2Nc2c(Cl)cccc2Cl)cc1` [conjugate 11, N-(4-(N-Carbamimidoylsulfamoyl)phenyl)-2-(2-((2,6-dichlorophenyl)amino)phenyl)acetamide] displayed a half-maximal inhibitory concentration (IC50) of 4.35 ± 0.23 µM. Also, at jack bean urease [1] (jack bean urease), the “% inhibition (urease)” value is 78.7%. On jack bean urease [2], the Ki came to 1.09 µM, the “Vmax (app)” value was determined as 1.11 µM/min and the mode of inhibition entry is listed as “mixed”.

At jack bean urease [1], `Cc1cccc(Nc2ccccc2C(=O)Nc2ccc(S(N)(=O)=O)cc2)c1C` [conjugate 12, 2-((2,3-Dimethylphenyl)amino)-N-(4-sulfamoylphenyl)benzamide] registered a half-maximal inhibitory concentration (IC50) of 18.7 ± 0.21 µM. Also, the “% inhibition (urease)” value at jack bean urease [1] (jack bean urease) stood at 91.6%. Further, on jack bean urease [2], the affinity, expressed as Ki, was 3.06 µM; the “Vmax (app)” value came to 8.62 µM/min; the mode of inhibition entry was “competitively; also recorded: competitive”.

`Cc1cccc(Nc2ccccc2C(=O)Nc2ccc(S(=O)(=O)Nc3onc(C)c3C)cc2)c1C` [conjugate 13, N-(4-(N-(3,4-Dimethylisoxazol-5-yl)sulfamoyl)phenyl)-2-((2,3-dimethylphenyl)amino)benzamide]: at jack bean urease [1], 15.9 ± 0.25 µM corresponded to half-maximal inhibition (IC50). The “% inhibition (urease)” value on jack bean urease [1] (jack bean urease) turned out to be 94.1%. On jack bean urease [2], the inhibition constant (Ki) turned out to be 4.82 µM, the “Vmax (app)” value turned out to be 3.03 µM/min and the mode of inhibition entry is listed as “mixed”.

On jack bean urease [1], `Cc1cccc(Nc2ccccc2C(=O)Nc2ccc(S(=O)(=O)Nc3nccs3)cc2)c1C` [conjugate 14, 2-((2,3-Dimethylphenyl)amino)-N-(4-(N-(thiazol-2-yl)sulfamoyl)phenyl)benzamide] showed an IC50 of 14.8 ± 0.27 µM. Further, the “% inhibition (urease)” value at jack bean urease [1] (jack bean urease) is on record as 82.9%. For the same compound, at jack bean urease [2], the affinity, expressed as Ki, was 1.65 µM; the “Vmax (app)” value was 2.28 µM/min; the mode of inhibition entry was “mixed”.

For `Cc1cccc(Nc2ccccc2C(=O)Nc2ccc(S(=O)(=O)Nc3ncccn3)cc2)c1C` [conjugate 15, 2-((2,3-Dimethylphenyl)amino)-N-(4-(N-(pyrimidin-2-yl)sulfamoyl)phenyl)benzamide], at jack bean urease [1], it took 7.92 ± 0.27 µM to reach half-maximal inhibition (IC50). The “% inhibition (urease)” value at jack bean urease [1] (jack bean urease) was 84.9%. At jack bean urease [2], the Ki stood at 1.04 µM, the “Vmax (app)” value turned out to be 6.36 µM/min and the mode of inhibition entry is recorded as “mixed”.

As for `Cc1ccnc(NS(=O)(=O)c2ccc(NC(=O)c3ccccc3Nc3cccc(C)c3C)cc2)n1` [conjugate 16, 2-((2,3-Dimethylphenyl)amino)-N-(4-(N-(4-methylpyrimidin-2-yl)sulfamoyl)phenyl)benzamide], the IC50 on jack bean urease [1] came to 94.99 ± 0.22 µM. In addition, the “% inhibition (urease)” value on jack bean urease [1] (jack bean urease) was found to be 68.3%.

As for `Cc1cc(NS(=O)(=O)c2ccc(NC(=O)c3ccccc3Nc3cccc(C)c3C)cc2)no1` [conjugate 17, 2-((2,3-Dimethylphenyl)amino)-N-(4-(N-(5-methylisoxazol-3-yl)sulfamoyl)phenyl)benzamide], the half-maximal inhibitory concentration (IC50) at jack bean urease [1] was found to be 8.35 ± 0.26 µM. Moreover, on jack bean urease [2], the affinity, expressed as Ki, was 0.46 µM; the “Vmax (app)” value came out at 8.54 µM/min; the mode of inhibition entry is on record as “competitively; also recorded: competitive”.

As to `CC(=O)NS(=O)(=O)c1ccc(NC(=O)c2ccccc2Nc2cccc(C)c2C)cc1` [conjugate 18, N-(4-(N-Acetylsulfamoyl)phenyl)-2-((2,3-dimethylphenyl)amino)benzamide], on jack bean urease [1], the IC50 amounted to 36.08 ± 0.28 µM. For the same compound, at jack bean urease [1] (jack bean urease), the “% inhibition (urease)” value is on record as 64.1%.

In the case of `Cc1cccc(Nc2ccccc2C(=O)Nc2ccc(S(=O)(=O)NC(=N)N)cc2)c1C` [conjugate 19, N-(4-(N-Carbamimidoylsulfamoyl)phenyl)-2-((2,3-dimethylphenyl)amino)benzamide], at jack bean urease [1], it took 31.32 ± 0.29 µM to reach half-maximal inhibition (IC50). On jack bean urease [1] (jack bean urease), the “% inhibition (urease)” value is recorded as 79.2%.

`NC(N)=S` [thiourea, reference compound]: at jack bean urease [1] (jack bean urease), the “% inhibition (urease)” value came out at 92.3%. Besides, the concentration for half-maximal inhibition (IC50) at jack bean urease [1] (read-out: IC50 (μM), mean ± SEM, jack bean urease, mean ± SEM) stood at 22.6 ± 0.23 µM. Moreover, on jack bean urease [2], the “Vmax (app)” value amounted to 18.61 µM/min and the mode of inhibition entry is “competitive”. Moreover, the Ki at jack bean urease [2] (read-out: Ki (inhibition constant), calculated from secondary Lineweaver–Burk plots) is 18.2 µM.
